Laboratory results reported in patent US20090257975A1, “Solid and Semi-Solid Polymeric Ionic Conjugates” (Pfizer Inc, priority 2002, published 2009).
In brackets after ≈: the same amount, converted by molar mass. Structures can show the parent of a compound that is named as a salt.

Experiment: Solubility determination of ziprasidone in pH 7.4 PBS (shaken vials, HPLC)
Assay type: physicochemical
Conditions: concentration of ziprasidone in solution
Procedure: The following samples were evaluated for solubility: • 1. Ziprasidone-polymer ionic conjugate FIVE (40% ziprasidone, 60% polymer composed of Lactide/Glycolide/Malic acid at molar ratios of 4:1:0.65M) • 2. Ziprasidone-polymer ionic conjugate in gel former (Solution of Conjugate FIVE in a typical gel former, The conjugate was dissolved in a mixture (1:1 by weight) with a mixture of two gel formers made individually of PEG-400 grafted with Trimethylene carbonate/Caprolactone/Glycolide and PEG-400 grafted with Lactide/Glycolide • 3. Ziprasidone mesylate salt • 4. Ziprasidone free base
Excess of each of the above sample were placed in a screw-cap vial with 2 ml of pH 7.4, PBS (Dulbecco's Phosphate-Buffered Saline) solution, and the vials were shaken continuously for 7 days. Ziprasidone free base and its mesylate salt were used as controls. The concentration of ziprasidone in solution was determined at 15 minutes, 6 hours, 24 hours, and 7 days. The HPLC samples were prepared by filtering each suspension through a 0.22-μm syringe filter without any additional dilutions

solubility at 15 min (Dulbecco's phosphate-buffered saline (PBS), aqueous buffer, thermodynamic from solid, time point 15 minutes) | Solubility (time point 6 hours) | Solubility (time point 7 days) | solubility at 6 h (Dulbecco's phosphate-buffered saline (PBS), aqueous buffer, thermodynamic from solid, time point 6 hours) | Solubility (time point 15 minutes) | SMILES
1.5 µg/mL | 1.1 µg/mL | 1.3 µg/mL |  |  | O=C1Cc2cc(CCN3CCN(c4nsc5ccccc45)CC3)c(Cl)cc2N1 [Ziprasidone Mesylate]
 |  | Below | 0.2 µg/mL (≈ 0.484 µM) | Below | O=C1Cc2cc(CCN3CCN(c4nsc5ccccc45)CC3)c(Cl)cc2N1 [Ziprasidone Free Base, 5-[2-[4-(1,2-benzisothiazol-3-yl)-1-piperazinyl]ethyl]-6-chloro-1,3-dihydro-2H-indol-2-one]
